The values that follow come from a melting point compilation (Tetko et al.; mined from patent text by program, amines drawn as free bases though some values may be those of a salt).

For orientation: melting point means the temperature, or range, at which the solid turns liquid.

The structures appear in SMILES notation.

In turn, `O=c1[nH]c2cc(C(F)(F)F)ccc2c(-c2cc(Cl)ccc2O)c1NS(=O)(=O)C(F)(F)F` gave a melting point of 267 to 270 °C.

In turn, `O=C(CCN1CCC2(CC1)OC(=O)c1ccccc12)c1ccccc1` came in with a melting point of 108 to 110 °C.

In the case of `CN1CC[C@H](NC(=O)c2ccccc2)[C@H](c2ccccc2)C1` (relative stereo), the melting point was in the range of 154 to 155 °C.

In turn, `CCOP(=O)(Cc1ccc(NC(=O)CCc2cnoc2-c2ccc(Cl)cc2)cc1)OCC` returned a melting point of 138 to 139 °C.

Compound `CC1CC2C3CCC4=CC(=O)C=CC4(C)C3=CCC2(C)C1C(=O)CN1CCN(c2cc(N3CCC4(CC3)OCCO4)nc(N3CCC4(CC3)OCCO4)n2)CC1` (configuration not stated) showed a melting point of 156 to 174 °C.

Regarding `CC(=O)c1ccc(Nc2ccccc2)cc1`, the melting point was 105 °C.

Turning to `CCS(=O)(=O)N(Cc1cccnc1)c1ccc(Oc2ccccc2)cc1`, the melting point lay in the range of 79 to 80 °C.

In turn, `CON=CC1=CCCN(C(=O)Oc2ccc(C(C)(C)CC(C)(C)C)cc2)C1` gave a melting point of 91 to 93 °C.

Compound `COc1cc(O)c2c(c1O)C1C=CC2C1` (configuration not stated) showed a melting point of 151 to 153 °C.

Regarding `O=C(C=Cc1ccc(O)c([N+](=O)[O-])c1)NC1CCc2ccccc21` (configuration not stated), the melting point fell in the range of 203 to 205 °C.

With `Cn1c(-c2ccccc2)c(CCC(=O)O)c2ccccc2c1=O`, the melting point lay within 138 to 140 °C.

Consider `O=C(O)c1csc2c(=O)cc(C(F)(F)F)oc12`, for which the melting point is 249 to 251 °C.

For the compound `COc1cc2c(cc1OC)/C(=C/c1cc(OC)c(OC)c(OC)c1)N(C(=O)Cc1cc(OC)c(OC)c(OC)c1)CC2`, the melting point is 148 to 150 °C.

`N#CNC(=NCCc1ccccc1Cl)c1cncc(NCc2ccccc2)c1` returned a melting point of 146 °C.

Compound `C#CCN1CCc2ccc([N+](=O)[O-])cc2CC1` registered a melting point of 122 to 125 °C.

On to `CCC1(CC)C(=O)N(C(C)(C)C)CC(C)(C)N1OC(C)c1ccc(CCl)cc1` (configuration not stated), for which the melting point fell in the range of 66 to 68 °C.

The compound `CCc1nnc(-c2ccc(OC)cc2)n1-c1cccc(C(F)(F)F)c1` came in with a melting point of 140 °C.

As for `CC=CCN(C)c1ncnc2c1ncn2C1OC(CO)C(O)C1O` (configuration not stated), the melting point fell in the range of 160 to 162 °C.

As for `CCOC(=O)Cc1c([N+](=O)[O-])cc(OCc2ccccc2)c2ccccc12`, the melting point fell in the range of 128 to 130 °C.

With `CC(NC(=O)C(=O)c1c[nH]c2ccc(Br)cc12)c1c[nH]c2ccc(Br)cc12` (configuration not stated), the melting point turned out to be 141 °C.

For the compound `CCOC(=O)CCN1C(=O)NC(C)(CCc2cc(C(C)(C)C)c(O)c(C(C)(C)C)c2)C1=O` (configuration not stated), the melting point came to 100 °C.

In turn, `CCOC(=O)c1nn(-c2ccccc2)c2c1CCCC2` gave a melting point of 102 to 103 °C.

The compound `CN(C)C(=O)C(O)(C(=O)O)c1ccc(Cl)c(Cl)c1` (configuration not stated) had a melting point of 158 to 160 °C.

Consider `CN1CC[C@@H](c2c(O)cc(O)c3c(=O)cc(-c4ccc([N+](=O)[O-])cc4Br)oc23)[C@@H]1CO`, for which the melting point came out at 186 °C.

`O=C1CCCc2ccc(OCCCCN3CCN(c4cccc5c4OCCC5)CC3)nc2N1` displayed a melting point of 186 to 187 °C.

On to `c1ccc2c3c([nH]c2c1)C(c1ccc2c(c1)OCCO2)NCC3` (configuration not stated), for which the melting point worked out at 144 °C.

`C[C@@H](NC(=O)C1(C)CC(F)(F)C1)c1ccc(Br)cc1` had a melting point of 120 to 122 °C.

Compound `CCOC(=O)C(CC)Cc1ccc(NC(=O)Cc2ccc(-n3cccc3)cc2)cc1` (configuration not stated) registered a melting point of 100 to 102 °C.

The compound `CC(c1oc2ccccc2c(=O)c1-c1cccc(F)c1)n1nc(-c2ccc(O)c(F)c2)c2c(N)ncnc21` (configuration not stated) registered a melting point of 244 to 247 °C.

Compound `CNC(=C[N+](=O)[O-])NCCSCC1(OC)C=CC=NC1` (configuration not stated) showed a melting point of 146 to 147 °C.

The compound `CCCOc1ccc(Cl)c2c(=O)c3ccccc3sc12` returned a melting point of 102 to 103 °C.

As for `Cc1cc(-c2cc(Cl)ccc2Cl)n2ncc(C#N)c2n1`, the melting point lay within 229 to 230 °C.

`Cn1c(=O)c2c(O)nccc2n(C)c1=O` gave a melting point greater than 300 °C.

Compound `O=C(O)c1ncc2[nH]c3c([N+](=O)[O-])cc([N+](=O)[O-])cc3c2n1` came in with a melting point of 269 to 272 °C.

In turn, `CC1(CCl)C(C(=O)OCC(Cl)(Cl)Cl)N2C(=O)C(NC(=O)Cc3ccccc3)C2S1=O` (configuration not stated) yielded a melting point of 130 to 131 °C.

Take `Cc1sc2nc(N(CCO)CCO)nc(NCc3ccccn3)c2c1Br`: the melting point was determined as 152 °C.

Regarding `CCCn1c(=O)c2[nH]c(C(C)=Cc3ccccc3)nc2n(CCC)c1=O`, the melting point lay in the range of 194 to 196 °C.

As to `O=C(O)c1cnc2n(c1=O)CCc1ccccc1-2`, the melting point is 215 to 217 °C.

For `COC(C)(C)c1cccc(Cn2nnc3c(-c4ccc(C)o4)nc(N)nc32)n1`, the melting point amounted to 178 °C.

Compound `CNC(=O)NC(=O)C(CC1CCCC1)c1ccc(C(F)(F)F)c(F)c1` (configuration not stated) came in with a melting point of 187 to 189 °C.

`CCc1cccc(CC)c1NCC(=O)NN` returned a melting point of 71 to 73 °C.

With `COc1ccc2c(c1)c(CC(=O)O)c(C)n2C(=O)c1ccc(F)c(F)c1`, the melting point was in the range of 113 to 115 °C.

As to `Nc1nc2c(s1)CCN(CC=Cc1cccc3ccccc13)CC2`, the melting point is 178 to 180 °C.

`CC1(C)CN(Cc2cc(F)ccc2F)c2cc(-c3ccc(C(=O)N4CCC[C@H]4CN4CCCC4)cc3)cnc2N1`: the melting point lay within 74 to 77 °C.

Compound `COC1=C(OC)C(=O)C(CCC(=O)N[C@@H](Cc2ccc(O)cc2)C(=O)O)=C(C)C1=O` registered a melting point of 170 °C.

Turning to `CCc1ccc(Nc2c(C(=O)NOCCO)ccc(F)c2F)c(F)c1`, the melting point was found to be 112 °C.

`O=[N+]([O-])c1ccc2c(c1)NP(=O)(N(CCCl)CCCl)OC2` (configuration not stated) gave a melting point of 138 to 142 °C.

Consider `CCCOc1ccccc1-c1nc2nc(N(CCC)CCC)ncc2c(=O)[nH]1`, for which the melting point lay within 123 to 124 °C.

`CC(C)(C)OC(=O)N1CCN(c2ccc(Br)cn2)CC1` had a melting point of 88 to 90 °C.

Take `CC=Cc1cccc(Oc2ccccc2Cl)c1OC`: the melting point lay in the range of 61 to 62 °C.

Regarding `Cc1ccc2c(c1)c(N1CCN(C(=O)c3cccs3)CC1)c(C#N)c(=O)n2Cc1ccccc1`, the melting point was 183 °C.

`Nc1ccc(Cc2n[nH]c(=O)o2)cc1` showed a melting point of 267 to 268 °C.

Consider `CCCc1c(OCCCOc2cccc(C(=O)NCCCCc3cccnc3)c2)ccc(C(C)=O)c1O`, for which the melting point is 84 to 86 °C.

In the case of `c1ccc(CN(c2ccccc2)c2ccccc2)cc1`, the melting point was 86 °C.

Turning to `Cc1cc(C)c(S(=O)(=O)OS(=O)(=O)c2c(C)cc(C)cc2C)c(C)c1`, the melting point is 194 to 198 °C.

With `CCC(CC)OC(=O)c1ccc(C(=O)NS(=O)(=O)c2ccc(C(=O)NCCc3ccccc3)cc2)cn1`, the melting point was in the range of 234 to 235 °C.

`Cc1ccc(S(=O)(=O)OCC2(CO)OC(n3ccc(=O)[nH]c3=O)C(O)C2O)cc1` (configuration not stated) came in with a melting point of 119 to 120 °C.

Compound `CCOC(=O)c1ccc(NC(=O)CCc2ccc(Cl)cc2)cc1` had a melting point of 163 to 165 °C.

In the case of `Brc1cn2c(Br)cnc2c(N2CCOCC2)n1`, the melting point was determined as 141 °C.

With `CCCC(CCC)n1c(CC)nc2c1c(=O)n(C)c(=O)n2-c1c(OC)ccnc1C`, the melting point was 124 to 126 °C.

In the case of `O=C(NCCO)OCc1ccccc1`, the melting point was 55 to 57 °C.

Compound `O=C(Nc1ccc(Oc2ncnc3cc4c(cc23)OCCOCCOCCO4)c(F)c1)c1c[nH]cc(-c2ccc(F)cc2)c1=O` came in with a melting point of 188 to 190 °C.
